What was measured:
[1] = test system: MCF-7 breast adenocarcinoma cells; assay: Xenograft assay of human tumors in athymic nude mice, MCF-7; assay type: in vivo
From the text: (§1) Xenograft Assay of Human Tumors.
(§2) Control mice received vehicle only.

[2] = test system: LNCaP prostate carcinoma cells; assay: Xenograft assay of human tumors in athymic nude mice, LNCaP; assay type: in vivo, mouse
From the text: as §1, §2

[3] = test system: human tumor xenografts (MCF-7, Hep3B, HT-29, LNCaP); details: all four tumor types, of 39 M4N-treated tumors, 21 days
Procedure: Xenograft Assay of Human Tumors. Athymic nude mice were implanted subcutaneously in their flanks with 2.5×10^6 Hep3B cells, 2×10^6 LNCaP cells, 1×10^7 HT-29 cells, or 2×10^6 MCF-7 cells.
M4N was dissolved in 6% Cremaphor EL, 6% ethanol, 88% saline as described in Loganzo et al. (2003). Mice received a single daily 100 μL i.p. injection containing 2 mg of M4N for 3 weeks. The control mice received an equal volume of the vehicle. Tumors were measured in two perpendicular dimensions (L and W) once every seven days, and the tumor volumes were calculated according to the following formula: V=(L×W/2)^3×π/6. The results from the individual mice were plotted as average tumor volume versus time. Statistical significance of the mean differences in tumor volume was assessed by Student's t-test.
Athymic nude mice were implanted s.c. in each flank with MCF-7 breast adenocarcinoma cells, Hep3B hepatocellular carcinoma cells, HT-29 colorectal carcinoma cells, and LNCaP prostate carcinoma cells. Most mice developed tumors in both flanks, although some developed a single tumor. When tumors attained a mean diameter of 7-8 mm, mice received for three weeks a single daily i.p. injection containing 2 mg of M4N dissolved in 100 uL Cremaphor-ethanol based solvent. Control mice received vehicle only. Tumors were measured in two perpendicular dimensions (L and W) once every seven days, and tumor volumes were calculated according to the formula: V=(L×W/2)^3×π/6.

[4] = test system: Hep3B hepatocellular carcinoma cells; assay: Xenograft assay of human tumors in athymic nude mice, Hep3B; assay type: in vivo
From the text: as §1, §2

[5] = test system: HT-29 colorectal carcinoma cells; assay: Xenograft assay of human tumors in athymic nude mice, HT-29; assay type: in vivo
From the text: as §1, §2

[6] = Systemic tissue distribution of 3H-M4N 3 hours after single i.p. or i.v. injection; assay type: in vivo, mice
Procedure: M4N Tissue Distribution Studies Using ^3H-M4N. […] The insoluble pellet was then further extracted with EtOH.
At 3 hours post-injection, the organs and blood were harvested and weighed, and the M4N was extracted.

Solubility character = assay type: physicochemical
[7] = MCF-7, of 10 M4N-treated tumors, 21 days i.p. treatment
[8] = LNCaP, of 11 M4N-treated tumors, 21 days i.p. treatment
[9] = Hep 3B, of 7 M4N-treated tumors, 21 days i.p. treatment
[10] = HT-29, of 11 M4N-treated tumors, 21 days i.p. treatment

COc1ccc(C[C@@H](C)[C@@H](C)Cc2ccc(OC)c(OC)c2)cc1OC [M4N, meso-1,4-bis(3,4-dimethoxyphenyl)-2,3-dimethylbutane]
Reduction in mean tumor volume versus control ([1]; MCF-7, after 21 days systemic M4N treatment): 74% | DOTV: number of tumors with decrease in volume from the original tumor volume [1, 7]: 7 | IOTV: number of tumors with increase in volume from the original tumor volume [1, 7]: 3 | Tumor Volume Increase (%) - 21 Days Treatment, M4N-Treatment ([1]; MCF-7 xenograft, 2 mg M4N i.p. daily for 3 weeks): 84% | Ratio of Mean M4N-Treated Tumor Size to Control Tumor Size ([1]; MCF-7 xenograft, 2 mg M4N i.p. daily, 21 days): 25.5% | Tumor Volume Increase (%) - 21 Days Treatment, M4N-Treatment ([2]; LNCaP xenograft, 2 mg M4N i.p. daily for 3 weeks): 25% | Ratio of Mean M4N-Treated Tumor Size to Control Tumor Size ([2]; LNCaP xenograft, 2 mg M4N i.p. daily, 21 days): 46.3% | Reduction in mean tumor volume versus control ([2]; LNCaP, after 21 days systemic M4N treatment): 53% | DOTV: number of tumors with decrease in volume from the original tumor volume [2, 8]: 9 | IOTV: number of tumors with increase in volume from the original tumor volume [2, 8]: 2 | Growth of LNCaP xenograft tumors ([2]; systemic oral administration of M4N): effectively suppresses the growth | DOTV: number of tumors with decrease in volume from the original tumor volume [3]: 21 | IOTV: number of tumors with increase in volume from the original tumor volume [3]: 18 | IOTV: share of tumors with increase in volume [3]: (46%) | Tumor Volume Increase (%) - 21 Days Treatment, M4N-Treatment ([4]; Hep 3B xenograft, 2 mg M4N i.p. daily for 3 weeks): 113% | Ratio of Mean M4N-Treated Tumor Size to Control Tumor Size ([4]; Hep 3B xenograft, 2 mg M4N i.p. daily, 21 days): 19.3% | Reduction in mean tumor volume versus control ([4]; Hep 3B, after 21 days systemic M4N treatment): 80% | DOTV: number of tumors with decrease in volume from the original tumor volume [4, 9]: 2 | IOTV: number of tumors with increase in volume from the original tumor volume [4, 9]: 5 | Reduction in mean tumor volume versus control ([5]; HT-29, after 21 days systemic M4N treatment): 70% | DOTV: number of tumors with decrease in volume from the original tumor volume [5, 10]: 3 | IOTV: number of tumors with increase in volume from the original tumor volume [5, 10]: 8 | Tumor Volume Increase (%) - 21 Days Treatment, M4N-Treatment ([5]; HT-29 xenograft, 2 mg M4N i.p. daily for 3 weeks): 787% | Ratio of Mean M4N-Treated Tumor Size to Control Tumor Size ([5]; HT-29 xenograft, 2 mg M4N i.p. daily, 21 days): 29.4% | M4N detected in tissue ([6]; heart or blood, 3 hours post-injection): Little or no M4N | M4N present in tissue ([6]; liver and fat, 3 hours post-injection): Significant quantities | Toxicity of systemic i.p. and i.v. injection ([6]; mice, single injection): no apparent toxicity | Solubility in dimethyl sulfoxide (Solubility character): soluble in dimethyl sulfoxide | Water solubility / hydrophilic or lipophilic character (Solubility character): hydrophobic or lipophilic

Reference: patent US7728036B2, “Methods for delivery of catecholic butanes for treatment of tumors” (priority 2003, dated 2010)
